Source: patent US10004701B2, “Methods and compositions for treating infection” (UNIVERSITY OF ROCHESTER, priority 2012, dated 2018)
Counter-ions that a name gives are not always drawn. Like-named read-outs stand apart in the source and are kept apart here.

Assays:
Assay in all cases: AK assay 384-well format, Prestwick library screening
E. coli = type: cell-based, Escherichia coli; settings: Escherichia coli, 3 h, 50 μM final drug concentration
E. cloacae = type: cell-based, Enterobacter cloacae; settings: Enterobacter cloacae, 3 h, 50 μM final drug concentration
P. aeruginosa = type: cell-based, Pseudomonas aeruginosa; settings: Pseudomonas aeruginosa, 3 h, 50 μM final drug concentration
[1] = tested on: S. aureus strain USA300-0114; type: cell-based, Staphylococcus aureus; settings: Staphylococcus aureus, USA300, 3 h, 50 μM final drug concentration
K. pneumoniae = type: cell-based, Klebsiella pneumoniae; settings: Klebsiella pneumoniae, 3 h, 50 μM final drug concentration
E. faecium = type: cell-based, Enterococcus faecium; settings: Enterococcus faecium, 3 h, 50 μM final drug concentration
[2] = tested on: A. baumannii strain 98-37-09; type: cell-based, Acinetobacter baumannii; settings: Acinetobacter baumannii, 983709, 3 h, 50 μM final drug concentration
[3] = planktonic E. coli, 384-well, cutoff for positive-scoring molecules 3-fold increase, read-out: AK-based Prestwick Library Screening Results: E. coli (increase in extracellular AK activity)
[4] = planktonic E. cloacae, 384-well, cutoff for positive-scoring molecules 3-fold increase, read-out: AK-based Prestwick Library Screening Results: E. cloacae (increase in extracellular AK activity)
[5] = planktonic P. aeruginosa, 384-well, cutoff for positive-scoring molecules 3-fold increase, read-out: AK-based Prestwick Library Screening Results: P. aeruginosa (increase in extracellular AK activity)
[6] = planktonic S. aureus, 384-well, cutoff for positive-scoring molecules 3-fold increase, read-out: AK-based Prestwick Library Screening Results: S. aureus (increase in extracellular AK activity)
[7] = planktonic K. pneumoniae, 384-well, cutoff for positive-scoring molecules 3-fold increase, read-out: AK-based Prestwick Library Screening Results: K. pneumoniae (increase in extracellular AK activity)
[8] = planktonic E. faecium, 384-well, cutoff for positive-scoring molecules 3-fold increase, read-out: AK-based Prestwick Library Screening Results: E. faecium (increase in extracellular AK activity)
[9] = planktonic A. baumannii, 384-well, cutoff for positive-scoring molecules 3-fold increase, read-out: AK-based Prestwick Library Screening Results: A. baumannii (increase in extracellular AK activity)
[10] = planktonic E. coli, 384-well, […], read-out: AK-based Prestwick Library Screening Results: E. coli (increase in extracellular AK activity)
[11] = planktonic E. cloacae, 384-well, […], read-out: AK-based Prestwick Library Screening Results: E. cloacae (increase in extracellular AK activity)
[12] = planktonic P. aeruginosa, 384-well, […], read-out: AK-based Prestwick Library Screening Results: P. aeruginosa (increase in extracellular AK activity)
[13] = planktonic S. aureus, 384-well, […], read-out: AK-based Prestwick Library Screening Results: S. aureus (increase in extracellular AK activity)
[14] = planktonic K. pneumoniae, 384-well, […], read-out: AK-based Prestwick Library Screening Results: K. pneumoniae (increase in extracellular AK activity)
[15] = planktonic E. faecium, 384-well, […], read-out: AK-based Prestwick Library Screening Results: E. faecium (increase in extracellular AK activity)
[16] = planktonic A. baumannii, 384-well, […], read-out: AK-based Prestwick Library Screening Results: A. baumannii (increase in extracellular AK activity)

Structure (SMILES): O=C(NCC1CCCCN1)c1cc(OCC(F)(F)F)ccc1OCC(F)(F)F (stereo not drawn) [Flecainide acetate]
- fold induction at 50 µM (E. coli; planktonic, cutoff for positive-scoring molecules 3-fold increase, read-out: AK-based Prestwick Library Screening Results, E. coli (fold increase in extracellular AK activity)): 0.6
- fold induction at 50 µM (E. cloacae; planktonic, cutoff for positive-scoring molecules 3-fold increase, read-out: AK-based Prestwick Library Screening Results, E. cloacae (fold increase in extracellular AK activity)): 0.7
- fold induction at 50 µM (P. aeruginosa; planktonic, cutoff for positive-scoring molecules 3-fold increase, read-out: AK-based Prestwick Library Screening Results, P. aeruginosa (fold increase in extracellular AK activity)): 0.6
- fold induction at 50 µM ([1]; planktonic, cutoff for positive-scoring molecules 3-fold increase, read-out: AK-based Prestwick Library Screening Results, S. aureus (fold increase in extracellular AK activity)): 0.7
- fold induction at 50 µM (K. pneumoniae; planktonic, cutoff for positive-scoring molecules 3-fold increase, read-out: AK-based Prestwick Library Screening Results, K. pneumoniae (fold increase in extracellular AK activity)): 0.6
- fold induction at 50 µM (E. faecium; planktonic, cutoff for positive-scoring molecules 3-fold increase, read-out: AK-based Prestwick Library Screening Results, E. faecium (fold increase in extracellular AK activity)): 0.9
- fold induction at 50 µM ([2]; planktonic, cutoff for positive-scoring molecules 3-fold increase, read-out: AK-based Prestwick Library Screening Results, A. baumannii (fold increase in extracellular AK activity)): 0.8

Structure (SMILES): Cc1onc(-c2c(F)cccc2Cl)c1C(=O)N[C@@H]1C(=O)N2[C@@H]1SC(C)(C)[C@@H]2C(=O)O [Flucloxacillin sodium]
- fold induction at 50 µM (E. coli; planktonic E. coli, positive cutoff 3-fold increase, read-out: AK-based Prestwick library screening result, E. coli (fold increase in extracellular AK activity)): 1.3
- fold induction at 50 µM (E. cloacae; planktonic E. cloacae, positive cutoff 3-fold increase, read-out: AK-based Prestwick library screening result, E. cloacae (fold increase in extracellular AK activity)): 1.3
- fold induction at 50 µM (P. aeruginosa; planktonic P. aeruginosa, positive cutoff 3-fold increase, read-out: AK-based Prestwick library screening result, P. aeruginosa (fold increase in extracellular AK activity)): 1.2
- fold induction at 50 µM ([1]; planktonic S. aureus, positive cutoff 3-fold increase, read-out: AK-based Prestwick library screening result, S. aureus (fold increase in extracellular AK activity)): 6.1
- fold induction at 50 µM (K. pneumoniae; planktonic K. pneumoniae, positive cutoff 3-fold increase, read-out: AK-based Prestwick library screening result, K. pneumoniae (fold increase in extracellular AK activity)): 1.1
- fold induction at 50 µM (E. faecium; planktonic E. faecium, positive cutoff 3-fold increase, read-out: AK-based Prestwick library screening result, E. faecium (fold increase in extracellular AK activity)): 1
- fold induction at 50 µM ([2]; planktonic A. baumannii, positive cutoff 3-fold increase, read-out: AK-based Prestwick library screening result, A. baumannii (fold increase in extracellular AK activity)): 1.5

Structure (SMILES): Nc1[nH]c(=O)ncc1F [Flucytosine]
- fold induction at 50 µM (E. coli; cutoff for positive-scoring molecules 3-fold increase, read-out: AK-based Prestwick Library Screening Results, E. coli (fold increase in extracellular AK activity)): 1.1
- fold induction at 50 µM (E. cloacae; cutoff for positive-scoring molecules 3-fold increase, read-out: AK-based Prestwick Library Screening Results, E. cloacae (fold increase in extracellular AK activity)): 1.8
- fold induction at 50 µM (P. aeruginosa; cutoff for positive-scoring molecules 3-fold increase, read-out: AK-based Prestwick Library Screening Results, P. aeruginosa (fold increase in extracellular AK activity)): 1.1
- fold induction at 50 µM ([1]; cutoff for positive-scoring molecules 3-fold increase, read-out: AK-based Prestwick Library Screening Results, S. aureus (fold increase in extracellular AK activity)): 1.1
- fold induction at 50 µM (K. pneumoniae; cutoff for positive-scoring molecules 3-fold increase, read-out: AK-based Prestwick Library Screening Results, K. pneumoniae (fold increase in extracellular AK activity)): 0.8
- fold induction at 50 µM (E. faecium; cutoff for positive-scoring molecules 3-fold increase, read-out: AK-based Prestwick Library Screening Results, E. faecium (fold increase in extracellular AK activity)): 0.9
- fold induction at 50 µM ([2]; cutoff for positive-scoring molecules 3-fold increase, read-out: AK-based Prestwick Library Screening Results, A. baumannii (fold increase in extracellular AK activity)): 1.2

Structure (SMILES): CC(=O)OCC(=O)[C@@]1(O)CC[C@H]2[C@@H]3CCC4=CC(=O)CC[C@]4(C)[C@@]3(F)[C@@H](O)C[C@@]21C [Fludrocortisone acetate]
- fold induction at 50 µM (E. coli; [3]): 1.3
- fold induction at 50 µM (E. cloacae; [4]): 1.4
- fold induction at 50 µM (P. aeruginosa; [5]): 1.2
- fold induction at 50 µM [1, 6]: 1
- fold induction at 50 µM (K. pneumoniae; [7]): 1
- fold induction at 50 µM (E. faecium; [8]): 1.1
- fold induction at 50 µM [2, 9]: 1.2

Structure (SMILES): O=C(O)c1ccccc1Nc1cccc(C(F)(F)F)c1 [Flufenamic acid]
- fold induction at 50 µM (E. coli; [10]): 1
- fold induction at 50 µM (E. cloacae; [11]): 1.8
- fold induction at 50 µM (P. aeruginosa; [12]): 1.1
- fold induction at 50 µM [1, 13]: 0.5
- fold induction at 50 µM (K. pneumoniae; [14]): 1
- fold induction at 50 µM (E. faecium; [15]): 1
- fold induction at 50 µM [2, 16]: 1.3

Structure (SMILES): CC1CCc2cc(F)cc3c(=O)c(C(=O)O)cn1c23 (stereo not drawn) [Flumequine]
- fold induction at 50 µM (E. coli; [10]): 13.6
- fold induction at 50 µM (E. cloacae; [11]): 24.4
- fold induction at 50 µM (P. aeruginosa; [12]): 1.4
- fold induction at 50 µM [1, 13]: 2.2
- fold induction at 50 µM (K. pneumoniae; [14]): 2.2
- fold induction at 50 µM (E. faecium; [15]): 1.5
- fold induction at 50 µM [2, 16]: 2.9

Structure (SMILES): Fc1ccc(C(c2ccc(F)cc2)N2CCN(C/C=C/c3ccccc3)CC2)cc1 [Flunarizine dihydrochloride]
- fold induction at 50 µM (E. coli; [3]): 1.7
- fold induction at 50 µM (E. cloacae; [4]): 1.6
- fold induction at 50 µM (P. aeruginosa; [5]): 1.3
- fold induction at 50 µM [1, 6]: 1.1
- fold induction at 50 µM (K. pneumoniae; [7]): 1.4
- fold induction at 50 µM (E. faecium; [8]): 1.3
- fold induction at 50 µM [2, 9]: 2.6

Structure (SMILES): CC1(C)O[C@@H]2C[C@H]3[C@@H]4C[C@H](F)C5=CC(=O)C=C[C@]5(C)[C@H]4[C@@H](O)C[C@]3(C)[C@]2(C(=O)CO)O1 [Flunisolide]
- fold induction at 50 µM (E. coli; planktonic, cutoff for positive 3-fold increase, read-out: AK-based Prestwick Library Screening Results, E. coli (fold increase in extracellular AK activity)): 0.5
- fold induction at 50 µM (E. cloacae; planktonic, cutoff for positive 3-fold increase, read-out: AK-based Prestwick Library Screening Results, E. cloacae (fold increase in extracellular AK activity)): 0.3
- fold induction at 50 µM (P. aeruginosa; planktonic, cutoff for positive 3-fold increase, read-out: AK-based Prestwick Library Screening Results, P. aeruginosa (fold increase in extracellular AK activity)): 0.3
- fold induction at 50 µM ([1]; planktonic, cutoff for positive 3-fold increase, read-out: AK-based Prestwick Library Screening Results, S. aureus (fold increase in extracellular AK activity)): 0.4
- fold induction at 50 µM (K. pneumoniae; planktonic, cutoff for positive 3-fold increase, read-out: AK-based Prestwick Library Screening Results, K. pneumoniae (fold increase in extracellular AK activity)): 0.5
- fold induction at 50 µM (E. faecium; planktonic, cutoff for positive 3-fold increase, read-out: AK-based Prestwick Library Screening Results, E. faecium (fold increase in extracellular AK activity)): 0.9
- fold induction at 50 µM ([2]; planktonic, cutoff for positive 3-fold increase, read-out: AK-based Prestwick Library Screening Results, A. baumannii (fold increase in extracellular AK activity)): 0.4

Structure (SMILES): Cc1c(Nc2ncccc2C(=O)O)cccc1C(F)(F)F [Flunixin meglumine]
- fold induction at 50 µM (E. coli; planktonic, […], read-out: AK-based Prestwick Library Screening Results, E. coli (fold increase in extracellular AK activity)): 0.6
- fold induction at 50 µM (E. cloacae; planktonic, […], read-out: AK-based Prestwick Library Screening Results, E. cloacae (fold increase in extracellular AK activity)): 1
- fold induction at 50 µM (P. aeruginosa; planktonic, […], read-out: AK-based Prestwick Library Screening Results, P. aeruginosa (fold increase in extracellular AK activity)): 0.6
- fold induction at 50 µM ([1]; planktonic, […], read-out: AK-based Prestwick Library Screening Results, S. aureus (fold increase in extracellular AK activity)): 0.5
- fold induction at 50 µM (K. pneumoniae; planktonic, […], read-out: AK-based Prestwick Library Screening Results, K. pneumoniae (fold increase in extracellular AK activity)): 0.5
- fold induction at 50 µM (E. faecium; planktonic, […], read-out: AK-based Prestwick Library Screening Results, E. faecium (fold increase in extracellular AK activity)): 0.6
- fold induction at 50 µM ([2]; planktonic, […], read-out: AK-based Prestwick Library Screening Results, A. baumannii (fold increase in extracellular AK activity)): 0.5
